pIC50: −log10 of the molar value. Activity calls are given as the source filed them. No cut-off for these calls is given here.
How the values were obtained:
[1] = test system: Mus musculus; assay: Protection against LPS-induced sepsis in C57BL/6J mouse model assessed as survival rate at 0.5 mg/kg, iv measured after 24 hrs relative to control; format: functional
[2] = Half-life in Sprague-Dawley rat at 20 mg/kg, po measured after 24 hrs; format: ADME, organism-based; settings: in vivo
[3] = test system: Mus musculus; assay: Protection against LPS-induced sepsis in C57BL/6J mouse model assessed as survival rate at 5 mg/kg, iv measured after 48 hrs relative to control; format: functional
[4] = test system: Mus musculus; assay: Protection against LPS-induced sepsis in C57BL/6J mouse model assessed as survival rate at 0.05 mg/kg, iv measured after 72 hrs relative to control; format: functional
[5] = test system: Mus musculus; assay: Anti-inflammatory activity in LPS-induced C57BL/6J mouse model of sepsis assessed as TNF-alpha in serum at 5 mg/kg, ip preadministered with compound for 24 hrs followed by LPS administration and measured after 3 hrs by ELISA (reference value: 282 pg/ml); format: functional; settings: time 27 hrs
[6] = test system: Mus musculus; assay: Protection against LPS-induced sepsis in C57BL/6J mouse model assessed as survival rate at 0.5 mg/kg, iv measured after 48 hrs relative to control; format: functional
[7] = test system: Mus musculus; assay: Protection against LPS-induced sepsis in C57BL/6J mouse model assessed as survival rate at 0.05 mg/kg, iv measured after 24 hrs relative to control; format: functional
[8] = test system: Mus musculus; assay: Protection against LPS-induced sepsis in C57BL/6J mouse model at 0.05 mg/kg, iv measured after 72 hrs; format: functional, organism-based
[9] = test system: Mus musculus; assay: Protection against LPS-induced sepsis in C57BL/6J mouse model assessed as survival rate at 5 mg/kg, iv measured after 72 hrs relative to control; format: functional
[10] = test system: Mus musculus; assay: Protection against LPS-induced sepsis in C57BL/6J mouse model assessed as […] at 5 mg/kg, iv measured after 32 hrs relative to control; format: functional
[11] = Cytotoxicity against human HepG2 cells assessed as cell viability at 50 uM incubated for 48 hrs by CCK8 assay relative to control; format: toxicity, cell-based; settings: read-out: Activity
[12] = Cmax in C57BL/6J mouse liver at 5 mg/kg, ip measured after 24 hrs by LC-MS/MS analysis; format: ADME, organism-based
[13] = test system: Mus musculus; assay: Protection against LPS-induced sepsis in C57BL/6J mouse model assessed as survival rate at 0.5 mg/kg, iv measured after 72 hrs relative to control; format: functional
[14] = AUC (0 to 24 hrs) in C57BL/6J mouse liver at 5 mg/kg, ip measured after 24 hrs by LC-MS/MS analysis; format: ADME, organism-based; settings: in vivo
[15] = Oral bioavailability in Sprague-Dawley rat at 20 mg/kg measured after 24 hrs; format: ADME, organism-based; settings: in vivo
[16] = AUC (0 to 24 hrs) in Sprague-Dawley rat at 20 mg/kg, po measured after 24 hrs; format: ADME, organism-based; settings: in vivo
[17] = Half-life in Sprague-Dawley rat at 5 mg/kg, iv measured after 24 hrs; format: ADME, organism-based; settings: in vivo
[18] = AUC (0 to 24 hrs) in Sprague-Dawley rat at 5 mg/kg, iv measured after 24 hrs; format: ADME, organism-based; settings: in vivo
[19] = test system: Mus musculus; assay: Protection against LPS-induced sepsis in C57BL/6J mouse model assessed as […] at 5 mg/kg, iv measured after 24 hrs relative to control; format: functional
[20] = test system: Mus musculus; assay: Anti-inflammatory activity in LPS-induced C57BL/6J mouse model of sepsis assessed as IL-6 in liver at 5 mg/kg, ip preadministered with compound for 24 hrs followed by LPS administration and measured after 3 hrs by ELISA (reference value: 308 pg/ml); format: functional; settings: time 27 hrs
[21] = Apparent volume of distribution in Sprague-Dawley rat at 5 mg/kg, iv measured after 24 hrs; format: ADME, organism-based; settings: in vivo, read-out: Vz
[22] = Cmax in C57BL/6J mouse blood at 5 mg/kg, ip measured after 24 hrs by LC-MS/MS analysis; format: ADME, organism-based
[23] = test system: Mus musculus; assay: Protection against LPS-induced sepsis in C57BL/6J mouse model assessed as survival rate at 0.05 mg/kg, iv measured after 48 hrs relative to control; format: functional
[24] = Apparent volume of distribution in Sprague-Dawley rat at 20 mg/kg, po measured after 24 hrs; format: ADME, organism-based; settings: in vivo
[25] = Tmax in Sprague-Dawley rat at 5 mg/kg, iv measured after 24 hrs; format: ADME, organism-based; settings: in vivo
[26] = biological target: T1, Bifunctional epoxide hydrolase 2 (Mus musculus, UniProt P34914)
T1 sequence (P34914 whole entry): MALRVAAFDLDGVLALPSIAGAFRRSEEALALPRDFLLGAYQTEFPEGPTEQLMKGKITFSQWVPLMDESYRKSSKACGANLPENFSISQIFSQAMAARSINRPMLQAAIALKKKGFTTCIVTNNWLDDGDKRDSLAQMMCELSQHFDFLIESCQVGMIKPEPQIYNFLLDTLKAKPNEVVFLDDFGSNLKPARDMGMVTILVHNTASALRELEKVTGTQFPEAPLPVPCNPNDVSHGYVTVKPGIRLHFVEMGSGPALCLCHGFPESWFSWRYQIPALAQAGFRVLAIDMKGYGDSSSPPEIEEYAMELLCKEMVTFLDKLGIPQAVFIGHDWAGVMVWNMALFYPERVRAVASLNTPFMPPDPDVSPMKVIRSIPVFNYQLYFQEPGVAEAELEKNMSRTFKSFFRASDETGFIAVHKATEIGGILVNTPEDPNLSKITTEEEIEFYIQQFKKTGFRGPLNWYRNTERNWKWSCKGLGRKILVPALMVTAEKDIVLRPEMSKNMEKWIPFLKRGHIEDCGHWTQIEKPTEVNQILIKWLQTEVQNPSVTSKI

[27] = Cytotoxicity against human HepG2 cells assessed as cell viability at 5 uM incubated for 48 hrs by CCK8 assay relative to control; format: toxicity, cell-based; settings: read-out: Activity
[28] = Cmax in Sprague-Dawley rat at 20 mg/kg, po measured after 24 hrs; format: ADME, organism-based; settings: in vivo
[29] = Cmax in Sprague-Dawley rat at 5 mg/kg, iv measured after 24 hrs; format: ADME, organism-based; settings: in vivo
[30] = test system: Mus musculus; assay: Protection against LPS-induced sepsis in C57BL/6J mouse model assessed as survival rate at 30 mg/kg, iv measured after 72 hrs relative to control; format: functional
[31] = test system: Mus musculus; assay: Protection against LPS-induced sepsis in C57BL/6J mouse model assessed as survival rate at 30 mg/kg, iv measured after 24 hrs relative to control; format: functional
[32] = test system: Mus musculus; assay: Protection against LPS-induced sepsis in C57BL/6J mouse model assessed as survival rate at 30 mg/kg, iv measured upto 56 hrs relative to control; format: functional
[33] = Cytotoxicity in HEK293T cells assessed as cell viability at 50 uM incubated for 48 hrs by CCK8 assay relative to control; format: toxicity, cell-based, HEK-293T; settings: human, read-out: Activity
[34] = test system: Mus musculus; assay: Anti-inflammatory activity in LPS-induced C57BL/6J mouse model of sepsis assessed as TNF-alpha in liver at 5 mg/kg, ip preadministered with compound for 24 hrs followed by LPS administration and measured after 3 hrs by ELISA (reference value: 298 pg/ml); format: functional; settings: time 27 hrs
[35] = AUC (0 to 24 hrs)in C57BL/6J mouse blood at 5 mg/kg, ip measured after 24 hrs by LC-MS/MS analysis; format: ADME, organism-based

O=C(Cc1ccccn1)Nc1cccc(/C=C/c2ccc(NC(=O)NCC3CCOCC3)cc2)c1
survival at 0.5 mg/kg [1]: 50%
half-life [2]: 131 min
survival at 5 mg/kg [3]: 40%
survival at 0.05 mg/kg [4]: 10%
Activity [5]: 242 pg/mL
survival at 0.5 mg/kg [6]: 40%
survival at 0.05 mg/kg [7]: 30%
Activity [8]: inactive
survival at 5 mg/kg [9]: 40%
Activity [10]: 40%
viability at 48 h, 50 µM [11]: 46.5%
Cmax [12]: 2510 ng/g
survival at 0.5 mg/kg [13]: 40%
AUC [14]: 21370 ng·h/g
bioavailability [15]: 5.1%
AUC [16]: 48 ng·h/mL
half-life [17]: 24 min
AUC(0-t) at 24 h [18]: 266 ng·h/mL
Activity [19]: 40%
Activity [20]: 270 pg/mL
Vd [21]: 10.8 L/kg
Cmax [22]: 330 ng/mL
survival at 0.05 mg/kg [23]: 10%
Vz [24]: 4132.531 L/kg
Tmax [25]: 4.8 min
pIC50 [26]: 8.40
viability at 48 h, 5 µM [27]: 73.9%
Cmax [28]: 28.2 ng/mL
Cmax [29]: 660 ng/mL
survival at 30 mg/kg [30]: 10%
survival at 30 mg/kg [31]: 60%
survival at 30 mg/kg [32]: > 50%
viability at 48 h, 50 µM [33]: 46.6%
Activity [34]: 193 pg/mL
AUC(0-t) at 24 h [35]: 122 ng·h/mL
